Biological target: T1, MerTK (Homo sapiens, UniProt Q12866)
T1 construct: endogenous in cells; host or cells: Jurkat cells
T1 sequence (Q12866 21-999): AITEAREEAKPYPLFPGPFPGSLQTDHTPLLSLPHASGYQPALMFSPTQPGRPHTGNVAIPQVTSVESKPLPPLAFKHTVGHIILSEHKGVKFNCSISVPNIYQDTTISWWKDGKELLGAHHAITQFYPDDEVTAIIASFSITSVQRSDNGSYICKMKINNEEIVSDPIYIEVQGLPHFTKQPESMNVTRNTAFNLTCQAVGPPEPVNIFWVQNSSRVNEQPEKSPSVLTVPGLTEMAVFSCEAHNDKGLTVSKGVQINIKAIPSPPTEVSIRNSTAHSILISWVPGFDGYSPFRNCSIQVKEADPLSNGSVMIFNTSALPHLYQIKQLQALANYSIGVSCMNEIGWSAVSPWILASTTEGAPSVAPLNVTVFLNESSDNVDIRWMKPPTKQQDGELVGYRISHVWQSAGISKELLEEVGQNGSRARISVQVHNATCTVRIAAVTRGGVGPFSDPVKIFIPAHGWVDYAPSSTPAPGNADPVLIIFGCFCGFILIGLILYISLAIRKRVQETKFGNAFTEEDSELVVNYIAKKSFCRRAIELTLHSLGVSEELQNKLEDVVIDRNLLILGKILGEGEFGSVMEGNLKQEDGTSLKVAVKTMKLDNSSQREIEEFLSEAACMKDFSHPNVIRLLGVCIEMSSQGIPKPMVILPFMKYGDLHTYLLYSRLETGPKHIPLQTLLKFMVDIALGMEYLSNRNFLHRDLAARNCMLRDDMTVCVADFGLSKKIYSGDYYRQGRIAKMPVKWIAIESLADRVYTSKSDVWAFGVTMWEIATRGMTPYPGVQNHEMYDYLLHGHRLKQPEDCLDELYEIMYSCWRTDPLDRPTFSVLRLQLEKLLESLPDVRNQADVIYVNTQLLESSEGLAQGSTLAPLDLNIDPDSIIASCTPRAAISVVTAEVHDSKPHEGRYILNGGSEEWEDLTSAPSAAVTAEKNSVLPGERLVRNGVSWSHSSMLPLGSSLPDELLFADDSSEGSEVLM
Test: MerTk degradation in Jurkat cells (Western blot)
Format: cell-based
Conditions: 0.001-1 μM, 4 hour-incubation at 37° C.; for Dmax: Jurkat, 4 h, read-out: Jurkat Max % MerTK Degradation
Procedure, shortened: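 MerTK degradation was read by near-infrared Western blot, normalized to actin, in BCA-quantified lysates of Jurkat cells exposed to 0.001-1 μM compound for 4 h at 37 °C.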

| SMILES | Dmax [%] | Jurkat Max % MerTK Degradation |
| --- | --- | --- |
| Cn1c(=O)n(C2CCC(=O)NC2=O)c2ccc(CCOCCN3CCC(N4CCN(Cc5ccc(-c6cn([C@H]7CC[C@H](O)CC7)c7nc(NCCC(F)(F)F)ncc67)cc5)CC4)C3)cc21 (stereo partly drawn) [I-132, 3-(3-methyl-2-oxo-5-[2-[2-(3-[4-[(4-[7-[trans-4-hydroxycyclohexyl]-2-[(3,3,3-trifluoropropyl)amino]-7H-pyrrolo[2,3-d]pyrimidin-5-yl]phenyl)methyl]piperazin-1-yl]pyrrolidin-1-yl)ethoxy]ethyl]-2,3-dihydro-1H-1,3-benzodiazol-1-yl)piperidine-2,6-dione] | > 50 |  |
| CCCCNc1ncc2c(n1)n([C@H]1CC[C@H](O)CC1)cc2[C@H]1CC[C@H](CN2CCN(CCOCCOCCOCCOCCCc3ccc4c(c3)n(C)c(=O)n4[C@H]3CCC(=O)NC3=O)CC2)CC1 [I-90, 3-[3-methyl-2-oxo-5-[1-(4-[[(1r,4r)-4-[2-(butylamino)-7-[trans-4-hydroxycyclohexy1]-7H-pyrrolo[2,3-d]pyrimidin-5-yl]cyclohexyl]methyl]piperazin-1-yl)-3,6,9,12-tetraoxapentadecan-15-y1]-2,3-dihydro-1H-1,3-benzodiazol-1-yl]piperidine-2,6-dione] | > 50 |  |
| CCCNc1ncc2c(-c3ccc(CN4CCN(CCOCCCOCCCc5ccc6c(c5)n(C)c(=O)n6[C@H]5CCC(=O)NC5=O)CC4)cc3)cn([C@H]3CC[C@H](O)CC3)c2n1 [I-71, 3-[3-methyl-2-oxo-5-[3-(3-[2-[4-([4-[2-(propylamino)-7-[trans-4-hydroxycyclohexyl]-7H-pyrrolo[2,3-d]pyrimidin-5-yl]phenyl]methyl)piperazin-1-yl]ethoxy]propoxy)propy1]-2,3-dihydro-1H-1,3-benzodiazol-1-yl]piperidine-2,6-dione] | > 50 |  |
| C[C@H](CC(F)(F)F)Nc1ncc2c(-c3ccc(CN4CCN(C5CC(OCCc6ccc7c(c6)n(C)c(=O)n7C6CCC(=O)NC6=O)C5)CC4)cc3)cn([C@H]3CC[C@H](O)CC3)c2n1 (stereo partly drawn) [I-194, 3-[3-methyl-2-oxo-5-[2-(3-[4-[(4-[7-[trans-4-hydroxycyclohexy1]-2-[[(2R)-4,4,4-trifluorobutan-2-yl]amino]pyrrolo[2,3-d]pyrimidin-5-yl]phenyl)methyl]piperazin-1-yl]cyclobutoxy)ethyl]-1,3-benzodiazol-1-yl]piperidine-2,6-dione] | > 50 |  |
| CN1CCN(Cc2ccc(-c3ccc(CO[C@H]4CCC[C@@H]4NC(=O)c4cc(-c5cnn(CCOCCOCCOCCCc6cccc7c6n(C)c(=O)n7C6CCC(=O)NC6=O)c5)cnc4N)cc3)cc2)CC1 (stereo partly drawn) [I-204, 2-Amino-5-(1-[2-[2-(2-[3-[1-(2,6-dioxopiperidin-3-yl)-3-methyl-2-oxo-1,3-benzodiazol-4-yl]propoxy]ethoxy)ethoxy]ethyl]pyrazol-4-yl)-N-[(1S,2S)-2-([4-[(4-methylpiperazin-1-yl)methyl]-[1,1-biphenyl]-4-yl]methoxy)cyclopentyl]pyridine-3-carboxamide] | 20 to 50 |  |
| CCCCNc1ncc2c(C3=CCN(CCOCCOCCOCCOCCCc4ccc5c(c4)n(C)c(=O)n5[C@H]4CCC(=O)NC4=O)CC3)cn([C@H]3CC[C@H](O)CC3)c2n1 [I-96, 3-[5-(1-[4-[2-(butylamino)-7-[trans-4-hydroxycyclohexyl]-7H-pyrrolo[2,3-d]pyrimidin-5-y1]-1,2,3,6-tetrahydropyridin-1-y1]-3,6,9,12-tetraoxapentadecan-15-yl)-3-methyl-2-oxo-2,3-dihydro-1H-1,3-benzodiazol-1-yl]piperidine-2,6-dione; formic acid] | > 50 |  |
| Cn1c(=O)n([C@H]2CCC(=O)NC2=O)c2ccc(Cn3cc(CN4CCN(Cc5ccc(-c6cn([C@H]7CC[C@H](O)CC7)c7nc(NCCC(F)(F)F)ncc67)cc5)CC4)nn3)cc21 [I-113, 3-(3-Methyl-2-oxo-5-[[4-([4-[(4-[7-[trans-4-hydroxycyclohexyl]-2-[(3,3,3-trifluoropropyl)amino]-7H-pyrrolo[2,3-d]pyrimidin-5-yl]phenyl)methyl]piperazin-1-yl]methyl)-1H-1,2,3-triazol-1-yl]methyl]-2,3-dihydro-1H-1,3-benzodiazol-1-yl)piperidine-2,6-dione] | > 50 |  |
| Cc1ncsc1-c1ccc(CNC(=O)[C@@H]2C[C@@H](O)CN2C(=O)[C@@H](NC(=O)COCCOCCN2CCN(Cc3ccc(-c4cn([C@H]5CC[C@H](O)CC5)c5nc(NCCC(F)(F)F)ncc45)cc3)CC2)C(C)(C)C)cc1 [I-165, (2S,4R)-1-[(2S)-3,3-dimethyl-2-[2-[2-(2-[4-[(4-[7-[trans-4-hydroxycyclohexyl]-2-[(3,3,3-trifluoropropyl)amino]pyrrolo[2,3-d]pyrimidin-5-yl]phenyl)methyl]piperazin-1-yl]ethoxy)ethoxy]acetamido]butanoyl]-4-hydroxy-N-[[4-(4-methyl-1,3-thiazol-5-yl)phenyl]methyl]pyrrolidine-2-carboxamide] | < 20 |  |
| CCCCNc1ncc2c(-c3ccc(CN4CCN(CCOCCOCCCc5ccc6c(c5)n(C)c(=O)n6[C@H]5CCC(=O)NC5=O)CC4)cc3)cn([C@H]3CC[C@H](O)CC3)c2n1 [I-42, 3-[5-[3-(2-[2-[4-([4-[2-(butylamino)-7-[trans-4-hydroxycyclohexyl]-7H-pyrrolo[2,3-d]pyrimidin-5-yl]phenyl]methyl)piperazin-1-yl]ethoxy]ethoxy)propyl]-3-methyl-2-oxo-2,3-dihydro-1H-1,3-benzodiazol-1-yl]piperidine-2,6-dione; formic acid] | > 50 |  |
| C[C@H](CC(F)(F)F)Nc1ncc2c(-c3ccc(CN4CCN(CCCO[C@H]5CCN(Cc6ccc7c(c6)n(C)c(=O)n7C6CCC(=O)NC6=O)C5)CC4)cc3)cn([C@H]3CC[C@H](O)CC3)c2n1 (stereo partly drawn) [I-210, 3-(3-methyl-2-oxo-5-[[(3R)-3-(3-[4-[(4-[7-[trans-4-hydroxycyclohexy1]-2-[[(2S)-4,4,4-trifluorobutan-2-yl]amino]pyrrolo[2,3-d]pyrimidin-5-yl]phenyl)methyl]piperazin-1-yl]propoxy)pyrrolidin-1-yl]methyl]-1,3-benzodiazol-1-yl)piperidine-2,6-dione] |  | C (maximum MerTK degradation less than or equal to 20% (≤20%)) |
| CCCCNc1ncc2c(-c3ccc(S(=O)(=O)N4CCN(CCOCCOCCOCCOCCCc5ccc6c(c5)n(C)c(=O)n6[C@H]5CCC(=O)N(C)C5=O)CC4)cc3)cn([C@H]3CC[C@H](O)CC3)c2n1 [I-60, 3-[5-[1-(4-[4-[2-(butylamino)-7-[trans-4-hydroxycyclohexyl]-7H-pyrrolo[2,3-d]pyrimidin-5-yl]benzenesulfonyl]piperazin-1-yl)-3,6,9,12-tetraoxapentadecan-15-y1]-3-methyl-2-oxo-2,3-dihydro-1H-1,3-benzodiazol-1-yl]-1-methylpiperidine-2,6-dione; formic acid] | < 20 |  |
| C[C@H](CC(F)(F)F)Nc1ncc2c(-c3ccc(CN4CCN(CCCOC5CN(Cc6ccc7c(c6)n(C)c(=O)n7C6CCC(=O)NC6=O)C5)CC4)cc3)cn([C@H]3CC[C@H](O)CC3)c2n1 (stereo partly drawn) [I-200, trans-3-(3-methyl-2-oxo-5-[[3-(3-[4-[(4-[7-[4-hydroxycyclohexyl]-2-[[(2R)-4,4,4-trifluorobutan-2-yl]amino]pyrrolo[2,3-d]pyrimidin-5-yl]phenyl)methyl]piperazin-1-yl]propoxy)azetidin-1-y1]methyl]-1,3-benzodiazol-1-y1)piperidine-2,6-dione; tris(formic acid)] | > 50 |  |
| Cn1c(=O)n([C@H]2CCC(=O)NC2=O)c2ccc(CCCOCCCCN3CCN(Cc4ccc(-c5cn(C6CCCCC6)c6nc(NCCC(F)(F)F)ncc56)cc4)CC3)cc21 [I-84, 3-[5-[3-(4-[4-[(4-[7-cyclohexy1-2-[(3,3,3-trifluoropropyl)amino]-7H-pyrrolo[2,3-d]pyrimidin-5-y1]phenyl)methyl]piperazin-1-yl]butoxy)propyl]-3-methyl-2-oxo-2,3-dihydro-1H-1,3-benzodiazol-1-yl]piperidine-2,6-dione] | > 50 |  |
| Cn1c(=O)n([C@H]2CCC(=O)NC2=O)c2ccc(CCCOCCCN3CCN(Cc4ccc(-c5cn([C@H]6CC[C@H](O)CC6)c6nc(NCCC(F)F)ncc56)cc4)CC3)cc21 [I-115, 3-[5-[3-(3-[4-[(4-[2-[(3,3-difluoropropyl)amino]-7-[(1r,4r)-4-hydroxycyclohexy1]-7H-pyrrolo[2,3-d]pyrimidin-5-yl]phenyl)methyl]piperazin-1-yl]propoxy)propyl]-3-methyl-2-oxo-2,3-dihydro-1H-1,3-benzodiazol-1-yl]piperidine-2,6-dione; formic acid] | > 50 |  |
| C[C@H](c1ccc(-c2cn([C@H]3CC[C@H](O)CC3)c3nc(NCCC(F)(F)F)ncc23)cc1)N1CCN(CCCOCCCc2ccc3c(c2)n(C)c(=O)n3C2CCC(=O)NC2=O)CC1 (stereo partly drawn) [I-101] | > 50 |  |
